What was measured:
KB = assay: In vitro cytotoxicity determined against human epidermoid carcinoma KB cells by MTT assay; type: functional, cell-based
L1210 = assay: In vitro cytotoxicity determined against murine leukemia L1210 cells by MTT assay; type: functional, cell-based; conditions: Mus musculus

Compound	IC50 (KB) [µM]	IC50 (L1210) [µM]
CCCCCCn1c2nc(=O)n(C)c(=O)c-2cc2c1C(=O)C(OC)=CC2=O	0.6	0.5
CCn1c2nc(=O)n(C)c(=O)c-2cc2c1C(=O)C(=O)c1ccccc1-2	0.3	0.1
CCCn1c2nc(=O)n(C)c(=O)c-2cc2c1C(=O)C(=O)c1ccccc1-2	1.2	0.7
CCCCCCCCn1c2nc(=O)[nH]c(=O)c-2cc2c1C(=O)C(=O)c1ccccc1-2	3.2	4.2
CCCCn1c2nc(=O)n(-c3ccccc3)c(=O)c-2cc2c1C(=O)C(=O)c1ccccc1-2	28.2	4.9
CCCCCCCCn1c2nc(=O)n(-c3ccccc3)c(=O)c-2cc2c1C(=O)C(OC)=CC2=O	1	1.8
CCCCCCn1c2nc(=O)n(C)c(=O)c-2cc2c1C(=O)C(=O)c1ccccc1-2	0.8	0.1
CCCCCCCCCCCCn1c2nc(=O)n(C)c(=O)c-2cc2ccccc21	> 50	> 50
CCCCCCCCCCCCn1c2nc(=O)n(-c3ccccc3)c(=O)c-2cc2c1C(=O)C(OC)=CC2=O	0.3	2.7
CCCCCCn1c2nc(=O)n(-c3ccccc3)c(=O)c-2cc2c1C(=O)C(OC)=CC2=O	0.4	1.3
CCCCCCCCn1c2nc(=O)n(-c3ccccc3)c(=O)c-2cc2c1C(=O)C(=O)c1ccccc1-2	22.9	3.1
CCCCCCCCCCCCn1c2nc(=O)n(-c3ccccc3)c(=O)c-2cc2c1C(=O)C(=O)c1ccccc1-2	17.9	2.8
CCCCCCCCn1c2nc(=O)n(C)c(=O)c-2cc2c1C(=O)C(OC)=CC2=O	5.8	0.4
CCCCCCCCCCCCn1c2nc(=O)[nH]c(=O)c-2cc2c1C(=O)C(=O)c1ccccc1-2	6.9	3
CCCCn1c2nc(=O)n(C)c(=O)c-2cc2c1C(=O)C(=O)c1ccccc1-2	0.2	0.4
CCCCCCCCn1c2nc(=O)[nH]c(=O)c-2cc2c1C(=O)C(OC)=CC2=O	1.5	4.4
CCCCCCn1c2nc(=O)[nH]c(=O)c-2cc2c1C(=O)C(OC)=CC2=O	4.5	4.8
CCCCn1c2nc(=O)n(C)c(=O)c-2cc2c1C(=O)C(OC)=CC2=O	0.9	1.2
CCCCn1c2nc(=O)[nH]c(=O)c-2cc2c1C(=O)C(=O)c1ccccc1-2	5.2	2.1
CCCCCCCCCCCCn1c2nc(=O)[nH]c(=O)c-2cc2c1C(=O)C(OC)=CC2=O	12.7	2.5
CCCCCCCCCCCCn1c2nc(=O)n(C)c(=O)c-2cc2c1C(=O)C(OC)=CC2=O	1.8	0.1
CCCCCCCCn1c2nc(=O)n(C)c(=O)c-2cc2c1C(=O)C(=O)c1ccccc1-2	1.7	0.4
CCn1c2nc(=O)n(C)c(=O)c-2cc2c3ccccc3cc(OC)c21	> 50	> 50
CCCCCCCCCCCCn1c2nc(=O)n(C)c(=O)c-2cc2c1C(=O)C(=O)c1ccccc1-2	0.2	0.3

Reference: ChEMBL document CHEMBL1129883, “Synthesis and cytotoxicity of 5-deazaflavins containing o- and p-quinone moieties” (Bioorg Med Chem Lett, 1997)
